Results on four compounds are retold here after ChEMBL document CHEMBL1212822, “Synthesis, fluorine-18 radiolabeling, and biological evaluation of N-((E)-4-fluorobut-2-en-1-yl)-2beta-carbomethoxy-3beta-(4'-halophenyl)nortropanes: candidate radioligands for in vivo imaging of the brain dopamine transporter with positron emission tomography” (J Med Chem, 2010).

Assay [1] has as its target Sodium-dependent dopamine transporter (Homo sapiens, UniProt Q01959).
For assay [2], the target named is Sodium-dependent serotonin transporter (Homo sapiens, UniProt P31645).
Assay [3] addresses Sodium-dependent noradrenaline transporter (Homo sapiens, UniProt P23975).
Description: Displacement of [3H]nisoxetine from human NET

Structures are written as SMILES. pKi: −log10 of the molar value.

Sequence of Sodium-dependent serotonin transporter (P31645 whole entry): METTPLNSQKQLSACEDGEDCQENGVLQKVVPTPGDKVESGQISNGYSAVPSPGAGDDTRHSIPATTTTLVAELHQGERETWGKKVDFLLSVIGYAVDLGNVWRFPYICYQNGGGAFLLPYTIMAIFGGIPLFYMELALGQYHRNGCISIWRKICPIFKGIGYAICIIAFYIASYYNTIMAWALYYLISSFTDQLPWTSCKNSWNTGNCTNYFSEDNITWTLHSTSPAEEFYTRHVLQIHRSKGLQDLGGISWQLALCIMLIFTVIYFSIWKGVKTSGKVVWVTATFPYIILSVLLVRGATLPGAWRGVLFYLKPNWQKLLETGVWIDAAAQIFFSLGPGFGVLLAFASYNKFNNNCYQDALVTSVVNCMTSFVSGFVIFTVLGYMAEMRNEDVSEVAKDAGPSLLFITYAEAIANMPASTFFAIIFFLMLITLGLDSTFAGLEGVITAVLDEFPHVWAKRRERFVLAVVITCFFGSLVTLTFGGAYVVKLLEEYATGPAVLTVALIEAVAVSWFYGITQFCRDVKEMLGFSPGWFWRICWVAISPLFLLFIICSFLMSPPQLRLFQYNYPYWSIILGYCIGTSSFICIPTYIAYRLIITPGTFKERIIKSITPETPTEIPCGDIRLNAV
Sequence of Sodium-dependent dopamine transporter (Q01959 whole entry): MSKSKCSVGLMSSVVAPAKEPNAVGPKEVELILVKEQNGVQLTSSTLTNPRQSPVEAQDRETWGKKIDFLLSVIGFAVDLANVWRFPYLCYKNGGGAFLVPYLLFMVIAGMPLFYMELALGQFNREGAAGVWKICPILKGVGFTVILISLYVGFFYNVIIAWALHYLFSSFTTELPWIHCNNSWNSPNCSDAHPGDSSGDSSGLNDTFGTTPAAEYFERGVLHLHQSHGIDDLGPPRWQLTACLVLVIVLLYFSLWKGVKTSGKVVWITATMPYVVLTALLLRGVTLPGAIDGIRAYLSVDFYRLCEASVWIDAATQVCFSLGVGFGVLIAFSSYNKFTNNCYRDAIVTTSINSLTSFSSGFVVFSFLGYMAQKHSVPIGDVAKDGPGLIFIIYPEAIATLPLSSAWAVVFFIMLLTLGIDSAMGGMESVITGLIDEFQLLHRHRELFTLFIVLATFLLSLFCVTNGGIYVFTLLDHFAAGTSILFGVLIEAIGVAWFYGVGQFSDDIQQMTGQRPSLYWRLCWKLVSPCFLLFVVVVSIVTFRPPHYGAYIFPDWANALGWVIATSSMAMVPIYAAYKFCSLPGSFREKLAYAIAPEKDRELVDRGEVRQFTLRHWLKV
Sequence of Sodium-dependent noradrenaline transporter (P23975 whole entry): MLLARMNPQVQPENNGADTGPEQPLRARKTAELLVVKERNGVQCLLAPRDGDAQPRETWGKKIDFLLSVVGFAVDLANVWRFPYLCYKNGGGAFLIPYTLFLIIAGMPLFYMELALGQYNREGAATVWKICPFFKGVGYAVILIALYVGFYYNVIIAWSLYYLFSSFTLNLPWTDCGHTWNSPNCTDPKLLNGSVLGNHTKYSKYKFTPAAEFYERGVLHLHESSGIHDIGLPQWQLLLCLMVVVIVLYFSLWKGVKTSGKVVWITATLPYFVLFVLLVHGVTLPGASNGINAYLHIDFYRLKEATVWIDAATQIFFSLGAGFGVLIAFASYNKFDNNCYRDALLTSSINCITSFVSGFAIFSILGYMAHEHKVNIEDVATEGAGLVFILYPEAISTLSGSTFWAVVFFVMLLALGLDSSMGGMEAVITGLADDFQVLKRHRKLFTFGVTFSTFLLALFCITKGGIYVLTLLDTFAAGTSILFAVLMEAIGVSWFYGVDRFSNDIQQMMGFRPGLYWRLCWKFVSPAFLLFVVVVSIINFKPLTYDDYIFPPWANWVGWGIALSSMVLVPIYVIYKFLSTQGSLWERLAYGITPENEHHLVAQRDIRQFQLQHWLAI

A word on the pKi: it is −log10 of the Ki, conventionally taken in molar units. A low value points to a high Ki. `COC(=O)[C@@H]1C2CCC(C[C@@H]1c1ccc(I)cc1)N2C/C=C/CF` (stereo partly drawn): the results for the pKi in assay [1] and in assay [2] were 9.30 and 8.66, respectively.

For the compound `COC(=O)[C@@H]1C2CCC(C[C@@H]1c1ccc(F)cc1)N2C/C=C/CF` (stereo partly drawn), the pKi in assay [1] is 8.02.

In the case of `COC(=O)[C@@H]1C2CCC(C[C@@H]1c1ccc(Br)cc1)N2C/C=C/CF` (stereo partly drawn), the pKi in assay [3] is 7.06; in assay [2], 8.07.

With `COC(=O)[C@@H]1C2CCC(C[C@@H]1c1ccc(C)cc1)N2C/C=C/CF` (stereo partly drawn), the pKi in assay [3] was 6.58; in assay [1] it was 8.57; in assay [2], 6.83.
